Assay results: patent publication US20110105623A1 (Biogenic Innovations, LLC, priority 2009, published 2011)
Values joined by “and” are separate entries in the source; they are usually repeats but may differ in a detail not shown here. Equal entries are not always repeated. Where two headings read alike, the source gives them in different places.

How the values were obtained:
Type in all cases: cell-based
[1] = tested on: Escherichia coli; test: USP <51> AET in cosmetic cream/composition; conditions: for AET microorganism count: 48 hrs-28 days; for Log Reduction from Initial Microorganism Inoculum: 14, 28 Days
[2] = tested on: Herpes Simplex Virus type 1 (ATCC #VR-260)
[3] = tested on: Lactobacillus acidophilus; test: Recovery from Acidophilus milk fortified with MSM into broth without MSM; conditions: for Lag Recovery of Lactobacillus acidophilus in Milk fortified with MSM Day 14 / Lag Recovery of Lactobacillus acidophilus in Milk fortified with MSM Day 21 / Lag Recovery of Lactobacillus acidophilus in Milk fortified with MSM Day 28 / Lag Recovery of Lactobacillus acidophilus in Milk fortified with MSM Day 7: duplicates; for Lag Recovery of Lactobacillus acidophilus in Milk fortified with MSM Day 21 / Lag Recovery of Lactobacillus acidophilus in Milk fortified with MSM Day 28: 0.50% MSM; for Lag Recovery of Lactobacillus acidophilus in Milk fortified with MSM Day 7: 5% MSM
Description: The Acidophilus milk was low fat (Darigold). […] All preparations and plating was conducted at room temperature.
The recovery study was run parallel to the study done on the affects of MSM on growth of Lactobacillus acidophilus in Acidophilus milk fortified with MSM. The recovery growth rate was analyzed on Day 7, Day 14, Day 21 and Day 28. For Table 27, the growth for Day x with no time is calculated from the initial growth study with the dilution factor into the log growth. […] Table 28 takes the value of 2.00 as the starting value.

Methylsulfonylmethane [MSM]
AET microorganism count ([1]; 10% MSM in Preservative Free Cosmetic Composition #1, 48 hours after inoculation): 5.4 × 10^4 | AET microorganism count ([1]; 10% MSM in Preservative Free Cosmetic Composition #1, 7 days after inoculation): <10 | AET microorganism count ([1]; 10% MSM in cosmetic cream without preservative): <10 | Log Reduction from Initial Microorganism Inoculum ([1]; 10% MSM in preservative-free jojoba cream): 5.7 log | Log Reduction from Initial Microorganism Inoculum ([1]; 10% MSM, Composition #1): 5.8 log | Log Reduction from Initial Microorganism Inoculum ([1]; 10% MSM, Composition #2): 5.8 log | Average TCID50 [2]: 3.17log10 and 4.67log10 and 4.33log10 and 4.08log10 and 4.83log10 and 5.00log10 and 5.42log10 | CPE at dilution −8 [2]: 0000 | Response, % reduction [2]: 78.620% and 99.320% and 99.790% and 87.980% and 93.240% and 98.800% and 97.860% and 61.980% | average log10 reduction ([2]; 1% MSM): 0.67 log10 | average percent reduction ([2]; 1% MSM): 78.62% | average log10 reduction ([2]; 2% MSM): 0.84 log10 | average percent reduction ([2]; 2% MSM): 85.55% | average log10 reduction ([2]; 3% MSM): 1.00 log10 | average percent reduction ([2]; 3% MSM): 90.00% | average percent reduction ([2]; 4% MSM): 97.43% | Response, % reduction ([2]; Dose 5.312 mM (log dose 0.7252581)): 32.390% and 61.980% | Response, % reduction ([2]; Dose 31.871 mM (log dose 1.503396)): 96.200% and 93.240% and 61.980% | Response, % reduction ([2]; Dose 53.118 mM (log dose 1.725242)): 87.980% and 93.240% and 98.800% | HillSlope, best-fit value ([2]; log(inhibitor) vs. normalized response, variable slope): 1.523 | LogIC50, best-fit value ([2]; log(inhibitor) vs. normalized response, variable slope, dose in mM): 1.006 | Recovery of Lactobacillus acidophilus in Milk fortified with MSM Day 7, initial start data ([3]; 0.5% MSM): 8.68 logs | Recovery of Lactobacillus acidophilus in Milk fortified with MSM Day 7, average recovery ([3]; 0.5% MSM, Day 7-24): 12.94 logs | Recovery of Lactobacillus acidophilus in Milk fortified with MSM Day 7, average recovery ([3]; 0.5% MSM, Day 7-48): 12.69 logs | Recovery of Lactobacillus acidophilus in Milk fortified with MSM Day 7, average recovery ([3]; 0.5% MSM, Day 7-72): 13.07 logs | Recovery of Lactobacillus acidophilus in Milk fortified with MSM Day 14, initial start data ([3]; 0.5% MSM, Day 14-0): 4.22 logs | Recovery of Lactobacillus acidophilus in Milk fortified with MSM Day 14, average recovery ([3]; 0.5% MSM, Day 14-24): 10.15 logs | Lag Recovery of Lactobacillus acidophilus in Milk fortified with MSM Day 14 ([3]; 0.5% MSM, Day 14-24): 10.19 logs and 10.10 logs | Recovery of Lactobacillus acidophilus in Milk fortified with MSM Day 14, average recovery ([3]; 0.5% MSM, Day 14-48): 12.84 logs | Lag Recovery of Lactobacillus acidophilus in Milk fortified with MSM Day 14 ([3]; 0.5% MSM, Day 14-48): 12.95 logs and 12.72 logs | Recovery of Lactobacillus acidophilus in Milk fortified with MSM Day 14, average recovery ([3]; 0.5% MSM, Day 14-72): 12.86 logs | Lag Recovery of Lactobacillus acidophilus in Milk fortified with MSM Day 14 ([3]; 0.5% MSM, Day 14-72): 13.02 logs and 12.70 logs | Recovery of Lactobacillus acidophilus in Milk fortified with MSM Day 21, initial start data ([3]; 0.5% MSM, Day 21): 3.37 logs | Recovery of Lactobacillus acidophilus in Milk fortified with MSM Day 21, average recovery ([3]; 0.5% MSM, Day 21-24): 12.91 logs | Lag Recovery of Lactobacillus acidophilus in Milk fortified with MSM Day 21 ([3]; Day 21-24): 12.89 logs and 12.93 logs | Recovery of Lactobacillus acidophilus in Milk fortified with MSM Day 21, average recovery ([3]; 0.5% MSM, Day 21-48): 13.02 logs | Lag Recovery of Lactobacillus acidophilus in Milk fortified with MSM Day 21 ([3]; Day 21-48): 12.94 logs and 13.1 logs | Recovery of Lactobacillus acidophilus in Milk fortified with MSM Day 21, average recovery ([3]; 0.5% MSM, Day 21-72): 11.30 logs | Lag Recovery of Lactobacillus acidophilus in Milk fortified with MSM Day 21 ([3]; Day 21-72): 12.29 logs and 10.31 logs | Recovery of Lactobacillus acidophilus in Milk fortified with MSM Day 28, initial start data ([3]; 0.5% MSM, Day 28): 1.00 logs | Recovery of Lactobacillus acidophilus in Milk fortified with MSM Day 28, average recovery ([3]; 0.5% MSM, Day 28-24): 6.29 logs | Lag Recovery of Lactobacillus acidophilus in Milk fortified with MSM Day 28 ([3]; Day 28-24): 6.11 logs and 6.47 logs | Recovery of Lactobacillus acidophilus in Milk fortified with MSM Day 28, average recovery ([3]; 0.5% MSM, Day 28-48): 13.33 logs | Lag Recovery of Lactobacillus acidophilus in Milk fortified with MSM Day 28 ([3]; Day 28-48): 13.66 logs and 12.99 logs | Recovery of Lactobacillus acidophilus in Milk fortified with MSM Day 28, average recovery ([3]; 0.5% MSM, Day 28-72): 13.00 logs | Lag Recovery of Lactobacillus acidophilus in Milk fortified with MSM Day 28 ([3]; Day 28-72): 12.99 logs and 13.01 logs | Day 7 log recovery growth rate increase from start time of zero ([3]; 0.5% MSM, Hour 0): 0.00 logs | Day 14 log recovery growth rate increase from start time of zero ([3]; 0.5% MSM, Hour 0): 0.00 logs | Day 21 log recovery growth rate increase from start time of zero ([3]; 0.5% MSM, Hour 0): 0.00 logs | Day 7 log recovery growth rate increase from start time of zero ([3]; 0.5% MSM, Hour 24): 4.26 logs | Day 14 log recovery growth rate increase from start time of zero ([3]; 0.5% MSM, Hour 24): 5.93 logs | Day 21 log recovery growth rate increase from start time of zero ([3]; 0.5% MSM, Hour 24): 9.54 logs | Day 7 log recovery growth rate increase from start time of zero ([3]; 0.5% MSM, Hour 48): −0.26 logs | Day 14 log recovery growth rate increase from start time of zero ([3]; 0.5% MSM, Hour 48): 2.69 logs | Day 21 log recovery growth rate increase from start time of zero ([3]; 0.5% MSM, Hour 48): 0.11 logs | Day 7 log recovery growth rate increase from start time of zero ([3]; 0.5% MSM, Hour 72): 0.39 logs | Day 14 log recovery growth rate increase from start time of zero ([3]; 0.5% MSM, Hour 72): 0.03 logs | Day 21 log recovery growth rate increase from start time of zero ([3]; 0.5% MSM, Hour 72): −1.72 logs | Day 28 log recovery growth rate increase from start time of zero ([3]; 0.5% MSM, Time 0): 0.00 logs | Day 28 log recovery growth rate increase from start time of zero ([3]; 0.5% MSM, Time 24): 5.29 logs | Day 28 log recovery growth rate increase from start time of zero ([3]; 0.5% MSM, Time 48): 7.04 logs | Day 28 log recovery growth rate increase from start time of zero ([3]; 0.5% MSM, Time 72): −0.32 logs | Recovery of Lactobacillus acidophilus in Milk fortified with MSM Day 7, initial start data ([3]; 5.0% MSM): 8.71 logs | Recovery of Lactobacillus acidophilus in Milk fortified with MSM Day 7, average recovery ([3]; 5.0% MSM, Day 7-24): 12.71 logs | Lag Recovery of Lactobacillus acidophilus in Milk fortified with MSM Day 7 ([3]; Day 7-24): 12.12 logs and 13.29 logs | Recovery of Lactobacillus acidophilus in Milk fortified with MSM Day 7, average recovery ([3]; 5.0% MSM, Day 7-48): 13.17 logs | Lag Recovery of Lactobacillus acidophilus in Milk fortified with MSM Day 7 ([3]; Day 7-48): 13.09 logs and 13.25 logs | Recovery of Lactobacillus acidophilus in Milk fortified with MSM Day 7, average recovery ([3]; 5.0% MSM, Day 7-72): 12.99 logs
